In patent US11078171B2, “Non-ATP/catalytic site p38 mitogen activated protein kinase inhibitors” (University of Maryland, Baltimore, priority 2018, dated 2021):
Like-named read-outs stand apart in the source and are kept apart here.

Tests used:
[1] = tested on: Stat-1 phosphorylation in anisomycin-stimulated HeLa cells; assay: Inhibition of substrate phosphorylation, phospho-Stat-1 immunoblot; type: cell-based, human; details: 30 min pretreatment
Experimental: (§1) Inhibition of substrate phosphorylation: A functional analysis of UM101 to block p38-dependent phosphorylation of MK2 and Stat-1 was performed in HeLa cells. […] Cell extracts prepared in RIPA buffer containing protease and phosphatase inhibitors were resolved by SDS-PAGE, transferred to PVDF membrane, blocked with 5% nonfat dry milk, probed with primary antibodies against phosphorylated MK2 and Stat-1, and total p38α as a loading control. Bands were detected using secondary antibodies conjugated to infrared fluorophores and infrared fluorescence imaging (Odyssey; LICOR).

[2] = tested on: MK2 phosphorylation in anisomycin-stimulated HeLa cells; assay: Inhibition of substrate phosphorylation, phospho-MK2 immunoblot; type: cell-based, human; details: 30 min pretreatment
Experimental: as §1

[3] = tested on: HMVECLs; assay: IL-8-directed neutrophil transendothelial migration (TEM) assay; type: cell-based, human
Experimental: Neutrophil transendothelial migration (TEM) assay: Neutrophils were isolated from heparinized venous blood that was collected from healthy volunteers using a protocol approved by the University of Maryland Institutional Review Board and TEM of calcein-labeled neutrophils through HMVECLs was measured.

[4] = tested on: LPS/hyperthermia-induced ALI in mice; details: for mice died within 24 h: 1000 μg i.p. 30 min prior to 50 μg LPS i.t./hyperthermia
[5] = tested on: HMVECL monolayers; assay: Endothelial permeability assay (10 kDa dextran flux), TNFα/hyperthermia; type: cell-based, human
Experimental: Endothelial permeability assay: Permeability of HMVECL monolayers was assessed by measuring transendothelial flux of 10 kDa dextran conjugated to Cascade blue fluorescent dye for 30 min at 37° C. in Matrigel-coated 3 μm pore size Transwell plates.
The capacity of UM60 and UM101 to stabilize endothelial barriers to macromolecules and neutrophils in TNFα- and hyperthermia-stressed HMVECL monolayers was tested (FIG. 2).

[6] = target: T1, p38β (Homo sapiens, UniProt Q15759); assay: DSF, binding to p38β
T1 construct: HA (N); made in house; host or cells: E. coli BL21
T1 sequence (Q15759 whole entry): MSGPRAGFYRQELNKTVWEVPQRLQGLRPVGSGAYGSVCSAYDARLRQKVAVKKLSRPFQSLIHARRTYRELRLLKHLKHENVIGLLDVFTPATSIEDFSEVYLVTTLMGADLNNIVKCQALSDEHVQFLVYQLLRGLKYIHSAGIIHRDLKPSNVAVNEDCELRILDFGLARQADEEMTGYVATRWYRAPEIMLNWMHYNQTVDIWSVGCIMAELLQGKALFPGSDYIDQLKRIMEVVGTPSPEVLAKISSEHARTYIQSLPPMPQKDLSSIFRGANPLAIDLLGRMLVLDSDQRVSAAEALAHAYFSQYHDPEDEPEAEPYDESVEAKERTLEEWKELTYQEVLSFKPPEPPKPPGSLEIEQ

[7] = patients at-risk for ARDS; cited from earlier work
[8] = target: T2, p38α (Homo sapiens, UniProt Q16539); assay: Differential scanning fluorimetry (DSF), binding to p38α; details: for stabilization of p38α (DSF): 10-100 μM; for ΔTm at 100 µM: read-out: increase of the melting temperature of p38α
T2 sequence (Q16539 whole entry): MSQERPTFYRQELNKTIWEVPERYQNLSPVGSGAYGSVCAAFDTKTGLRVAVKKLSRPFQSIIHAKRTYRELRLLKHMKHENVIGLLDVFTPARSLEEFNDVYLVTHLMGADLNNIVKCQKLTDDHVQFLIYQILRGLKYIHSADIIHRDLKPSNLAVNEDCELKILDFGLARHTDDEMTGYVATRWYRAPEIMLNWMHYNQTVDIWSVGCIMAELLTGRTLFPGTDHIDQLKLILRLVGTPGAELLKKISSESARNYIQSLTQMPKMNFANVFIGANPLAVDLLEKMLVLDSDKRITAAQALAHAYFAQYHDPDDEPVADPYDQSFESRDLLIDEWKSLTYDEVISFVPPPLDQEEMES

[9] = tested on: HMVECLs; assay: LDH release cytotoxicity assay; type: cell-based, human; details: 100 μM for 48 h
Experimental: (§2) Cytotoxicity of HMVECL exposed to 10-100 μM of each compound is analyzed by MTS assay (Promega), LDH release (Promega), and immunoblotting for activated caspase-3 (Cell Signaling).

[10] = target: T2, p38α; assay: STD-NMR with p38α; type: binding; design: made in house; host or cells: E. coli BL21; details: 200 μM UM101, 5 μM protein
Experimental: (§3) Saturation Transfer Difference Nuclear Magnetic Resonance (STD-NMR): A 40 mM stock solution of UM101 was made in d6-DMSO. STD-NMR samples contained 150 mM NaCl, 50 mM phosphate, pH 7,200 μM UM101, and 5 μM p38 protein in D20. Spectra were recorded on an Agilent DD2 500-MHz spectrometer equipped with a 5-mm inverse HFCN probe head at 300 K. During each transient, the protein was saturated with a series of 58 […]-shaped pulses (50 ms, 1 ms delay between pulses) using the vendor-supplied STD-ES pulse sequence, for a total saturation time of 3 seconds. The on-resonance irradiation of protein was done at 0.5 ppm and off-resonance irradiation at 30 ppm. The vendor-supplied WATERGATE pulse sequence was used to suppress the water signal in the STD spectrum. The on-resonance and off-resonance pulse sequences were subtracted internally. A total of 16,384 transients were collected for each STD experiment with a 1 second delay between acquisitions, 6000 Hz spectral width, and 1.3 second acquisition time.
(§4) Selective binding of UM101 to the CADD-targeted pocket in p38α was confirmed using Saturation Transfer Difference (STD)-NMR. The peaks in the 1D spectrum are labeled according to tentative peak assignments of UM101 in aqueous form, based on assignments of UM101 in 2 mM d6-DMSO, which were obtained from the use of 1D proton and C13 and 2D-HMBC experiments. […]

[11] = tested on: LPS-induced acute lung injury in mice; assay: Mouse LPS acute lung injury model with UM101 analogues, total protein in lung lavage fluid (FIG. 9, FIG. 10); type: in vivo
Experimental: FIG. 9 illustrates that UM101 and analogues inhibit acute lung injury in a mouse model. Mice were pretreated i.p. with 1 mg of test compounds and then treated with […] LPS i.t. at 39° C. to induce inflammation. Lung injury was assessed by measuring total protein in the lung lavage fluid.
FIG. 10 illustrates that UM101 and analogues inhibit acute lung injury in a mouse model. All mice received 50 μg LPS i.t. and were kept 24 h at 39° C.; all treatments 1 mg in 0.5 ml DMSO given 6 h post-LPS; mean SM, n=5, *p=0.03 vs DMSO #1; †p=0.16 vs DMSO #2. Lung injury was assessed by measuring total protein in the lung lavage fluid.
First, the compounds can block thrombin-induced cell permeability in human vascular endothelial cells (FIG. 8). […] Mice were pretreated i.p. with 1 mg of test compounds and then treated with […] LPS i.t. at 39° C. to induce inflammation. Lung injury was assessed by measuring total protein in the lung lavage fluid. […] All mice received 50 μg LPS i.t. and were kept 24 h at 39° C.; all treatments 1 mg in 0.5 ml DMSO given 6 h post-LPS; mean±SM, n=5, *p=0.03 vs DMSO #1; †p=0.16 vs DMSO #2. Lung injury was assessed by measuring total protein in the lung lavage fluid.

[12] = target: T3, p38α mutant (R49K/HL107-8TF/K165R) (Homo sapiens, UniProt Q16539, H107T/K165R/L108F/R49K); assay: DSF, binding to p38α mutant with 4 mutations in CADD-targeted pocket; details: four of ten target pocket amino acids substituted
T3 construct: made in house; host or cells: E. coli BL21
T3 sequence (Q16539 whole entry R49K/H107T/L108F/K165R): as the sequence (Q16539 whole entry) above, with R49K, H107T, L108F, K165R counted along it

[13] = target: T4, mutated p38α (Homo sapiens, UniProt Q16539, H107T/K165R/L108F/R49K); assay: STD-NMR with mutated p38α; type: binding; details: 200 μM UM101, 5 μM protein
T4 construct: made in house; host or cells: E. coli BL21
T4 sequence (Q16539 whole entry R49K/H107T/L108F/K165R): as the sequence (Q16539 whole entry) above, with R49K, H107T, L108F, K165R counted along it
Experimental: as §3, §4

[14] = target: T1, p38β; assay: STD-NMR with p38β; type: binding; details: 200 μM UM101, 5 μM protein
Experimental: as §3, §4

[15] = tested on: HMVECLs; assay: MTS cytotoxicity assay; type: cell-based, human; details: 100 μM for 48 h
Experimental: as §2
Cytotoxicity assay: Cytotoxicity was monitored in parallel HMVEC-L monolayers established in 96-well culture plates using a colorimetric assay that measured reduction of 3-(4,5-dimethylthiazol-2-yl)-5-(3-carboxymethoxyphenyl)-2-(4-sulfophenyl)-2H-tetrazolium (MTS) to a formazan dye (CellTiter 96™; Promega; Madison, Wis.) according to the manufacturer's protocol and quantifying product formation by measuring absorption at 490 nm.

[16] = target: ERK2 (Homo sapiens, UniProt P28482); assay: DSF, binding to ERK2; details: 10-100 μM
Chain of ERK2 (P28482 whole entry, species assumed): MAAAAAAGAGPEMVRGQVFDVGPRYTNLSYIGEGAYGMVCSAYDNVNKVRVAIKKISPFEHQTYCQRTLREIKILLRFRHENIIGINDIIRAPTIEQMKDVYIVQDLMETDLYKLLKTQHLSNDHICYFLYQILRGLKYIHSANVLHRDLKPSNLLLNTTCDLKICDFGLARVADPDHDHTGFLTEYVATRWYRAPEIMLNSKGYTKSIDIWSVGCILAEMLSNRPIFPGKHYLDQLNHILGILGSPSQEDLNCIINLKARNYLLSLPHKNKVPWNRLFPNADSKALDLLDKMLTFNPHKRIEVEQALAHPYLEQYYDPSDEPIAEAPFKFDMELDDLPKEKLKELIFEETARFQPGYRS
Experimental: Differential Scanning Fluorimetry (DSF): Binding of CADD selected compounds to p38α and […] was tested experimentally using DSF, which evaluates changes in the target protein melting temperature (ΔTm) due to interactions with test compound. SYPRO orange (Invitrogen; diluted 1:1000 in 10 mM HEPES, 150 mM NaCl, pH 7.5) and 1 μM unphosphorylated recombinant human p38α were added to 96-well PCR plates, then 50 nM to 200 μM test compound in 100% DMSO (2% final DMSO concentration) was added, the plates mixed, sealed, centrifuged at 1000 rpm for 1 min, and melting curve performed using an Applied Biosystems real time PCR instrument. The melting point was determined from the first derivative curve. In addition, […], or target-disrupted p38α mutant are used as well.
Test compounds at 10-100 μM were screened for binding to recombinant p38α and ERK2 using DSF (FIG. 1e, Table 1).

[17] = rheumatoid arthritis, two trials; cited from earlier work
[18] = patients with Crohn's disease; cited from earlier work
[19] = patients with hypercholesterolemia; cited from earlier work
[20] = FIG. 9: pretreated i.p. with 1 mg, then 100 mg LPS i.t. at 39° C.
[21] = FIG. 10: 50 μg LPS i.t., 24 h at 39° C., 1 mg in 0.5 ml DMSO given 6 h post-LPS

SMILES: C[S+]([O-])c1ccc(-c2nc(-c3ccncc3)c(-c3ccc(F)cc3)[nH]2)cc1 (centres unmarked) [SB203580, reference compound]
- anisomycin-stimulated phosphorylation of Stat-1 ([1]; 10 μM): reduced
- anisomycin-stimulated phosphorylation of MK2 ([2]; 10 μM): reduced
- reduction of hyperthermia-augmented neutrophil TEM ([3]; 10 μM): 84%
- reduction of lavage neutrophil content vs. DMSO-treated controls ([4]; 1000 μg i.p.): 46.8%
- mice died within 24 h [4]: one of six
- reduction of TNFα/hyperthermia-induced permeability increase ([5]; 10 μM): 50%
- stabilization of p38β (DSF) [6]: stabilized both p38α and p380

SMILES: Cc1cc(F)ccc1-c1nc(NC(CO)CO)nc2c1ccc(=O)n2-c1c(F)cccc1F [dilmapimod]
- safety [7]: safe at the doses administered
- serum C-reactive protein (CRP) levels [7]: modestly reduced

SMILES: O=C(Nc1ccc(CN2CCS(=O)(=O)CC2)cc1)c1ccc(Cl)cc1 [UM101, 4-chloro-N-{4-[(1,1-dioxo-1lambda˜6˜,4-thiazinan-4-yl)methyl]phenyl}benzamide]
- anisomycin-stimulated phosphorylation of Stat-1 ([1]; 50 μM): reduced
- stabilization of p38α (DSF) [8]: only stabilized p38α
- ΔTm at 100 µM [8]: ~0.7 °C
- toxicity in LDH release assay [9]: Neither compound was toxic
- anisomycin-stimulated phosphorylation of MK2 ([2]; 50 μM): reduced
- reduction of hyperthermia-augmented neutrophil TEM ([3]; 10 μM): 95%
- reduction of hyperthermia-augmented neutrophil TEM ([3]; 25 μM): less than baseline levels
- reduction of hyperthermia-augmented neutrophil TEM ([3]; 50 μM): less than baseline levels
- interaction with p38α (STD-NMR) [10]: protons in both aromatic rings of UM101 interact with p38α
- reduction of lavage neutrophil content vs. DMSO-treated controls ([4]; 100 μg i.p.): 44.4%
- reduction of lavage neutrophil content vs. DMSO-treated controls ([4]; 300 μg i.p.): 49.5%
- reduction of lavage neutrophil content vs. DMSO-treated controls ([4]; 500 μg i.p.): 55.3%
- reduction of lavage neutrophil content vs. DMSO-treated controls ([4]; 1000 μg i.p.): 54%
- survival of pretreated mice ([4]; 100, 300, 500 or 1000 μg i.p., 24 h): All sixteen UM101-pretreated mice survived
- protein leak into bronchoalveolar lavage fluid (total protein) [11, 20]: reduced protein leak
- binding to p38α mutant (DSF) [12]: no UM101-binding
- reduction of TNFα/hyperthermia-induced permeability increase ([5]; 10 μM): 74%
- reduction of TNFα/hyperthermia-induced permeability increase ([5]; 25 μM): 89%
- reduction of TNFα/hyperthermia-induced permeability increase ([5]; 100 μM): > 100%
- interaction with mutated p38α (STD-NMR) [13]: much weaker
- interaction with p38β (STD-NMR) [14]: much weaker
- stabilization of p38β (DSF) [6]: only stabilized p38α
- toxicity in MTS assay [15]: Neither compound was toxic
- stabilization of ERK2 (DSF) [16]: not ERK2

SMILES: O=C(Nc1ccc(CN2CCOCC2)cc1)c1ccc(Cl)cc1 [SF-7-009]
- protein leak into bronchoalveolar lavage fluid (total protein) [11, 20]: reduced protein leak
- protein leak into bronchoalveolar lavage fluid (total protein) [11, 21]: reduced protein leak

SMILES: NC(=O)c1ccc(N(C(N)=O)c2c(F)cccc2F)nc1-c1ccc(F)cc1F [VX-702]
- ACR20 symptom score [17]: small increases in proportion of treated subjects with ACR20 symptom score vs. placebo

SMILES: Cc1ccc(-n2nc(C(C)(C)C)cc2NC(=O)Nc2ccc(OCCN3CCOCC3)c3ccccc23)cc1 [BIRB 796, doramapimod]
- clinical effect [18]: no clinical effect
- serum CRP levels [18]: transiently reduced

SMILES: CN(C)c1cccc2c(S(=O)(=O)Nc3ccc(CN4CCOCC4)cc3)cccc12 [SF-7-044]
- protein leak into bronchoalveolar lavage fluid (total protein) [11, 21]: reduced protein leak

SMILES: O=C1c2cc(S(=O)(=O)NCCO)ccc2-c2ccc(S(=O)(=O)NCCO)cc21 [UM60, N2,N7-di(2-hydroxyethyl)-9-oxo-9H-2,7-fluorenedisulfonamide]
- stabilization of p38α (DSF) [8]: stabilized p38α
- ΔTm at 100 µM [8]: ~0.7 °C
- toxicity in LDH release assay [9]: Neither compound was toxic
- reduction of hyperthermia-augmented neutrophil TEM ([3]; 10 μM): 18%
- reduction of hyperthermia-augmented neutrophil TEM ([3]; 25 μM): 89%
- reduction of hyperthermia-augmented neutrophil TEM ([3]; 50 μM): less than baseline levels
- mice died within 24 h [4]: Four of six
- reduction of TNFα/hyperthermia-induced permeability increase ([5]; 10 μM): no effect
- reduction of TNFα/hyperthermia-induced permeability increase ([5]; 25 μM): no effect
- reduction of TNFα/hyperthermia-induced permeability increase ([5]; 100 μM): 71%
- toxicity in MTS assay [15]: Neither compound was toxic
- stabilization of ERK2 (DSF) [16]: not ERK2

SMILES: Cc1c(F)cc(C(=O)NC2CC2)cc1-c1ccc(C(=O)NCC(C)(C)C)cn1 [losmapimod]
- serum CRP [19]: reduced serum CRP
- vascular relaxation [19]: improved vascular relaxation
